Results taken from patent US9995734B2, “Human T cell line assay for evaluating the immunologic identity of glatiramer acetate preparations” (Mylan Inc., priority 2013, dated 2018).

Assays:
[1] = system: Donor 3 COP T-Cell Lines; test: ATP proliferation assay (CellTiter Glo), Donor 3 COP T-cell lines, incl. reactivity to non-canonical GA peptides; assay type: cell-based, human; conditions: for Reactivity (proliferation), Mean: Day 54 of culture; for Proliferation (luminescent ATP assay), Mean: Day 77 of culture, 0 μg/mL 1563
[2] = system: Donor 4 COP T-Cell Lines; test: ATP proliferation assay (CellTiter Glo), Donor 4 COP T-cell lines, incl. reactivity to non-canonical GA peptides; assay type: cell-based, human; conditions: for luminescent ATP proliferation assay, Mean RLU: 205-1H7, 0 μg/mL 3382; for luminescent ATP proliferation assay, Mean RLU / Mean RLU: Day 59, 4 days incubation; for Mean, ATP proliferation assay: Cell Line 205-1F4; for Mean RLU: T-Cell Line 205-1H11; for Reactivity (proliferation), Mean: T-cell line 205-1B4, No Antigen 830

glatiramer acetate [COP]
Mean, ATP proliferation assay ([1]; T-cell line 165-D11C, 1 μg/mL, Day 46, after 3 days): 486 RLU | Reactivity (proliferation), Mean ([1]; T-cell line 165-D11C, 3 μg/mL antigen, No Antigen 4571): 6618 RLU | Mean, ATP proliferation assay ([1]; T-cell line 165-D11C, 3 μg/mL, Day 46, after 3 days): 19410 RLU | Reactivity (proliferation), Mean ([1]; T-cell line 165-D11C, 10 μg/mL antigen, No Antigen 4571): 15652 RLU | Mean, ATP proliferation assay ([1]; T-cell line 165-D11C, 10 μg/mL, Day 46, after 3 days): 42017 RLU | Reactivity (proliferation), Mean ([1]; T-cell line 165-D11C, 100 μg/mL antigen, No Antigen 4571): 12958 RLU | Mean, ATP proliferation assay ([1]; T-cell line 165-D11C, Day 32, 10 μg/mL): 525 RLU | Reactivity (proliferation), Mean ([1]; T-cell line 165-E3C, 1 μg/mL antigen, No Antigen 2797): 2592 RLU | Mean, ATP proliferation assay ([1]; T-cell line 165-E3C, 1 μg/mL, Day 46, after 3 days): 364 RLU | Reactivity (proliferation), Mean ([1]; T-cell line 165-E3C, 3 μg/mL antigen, No Antigen 2797): 14394 RLU | Mean, ATP proliferation assay ([1]; T-cell line 165-E3C, 3 μg/mL, Day 46, after 3 days): 23785 RLU | Reactivity (proliferation), Mean ([1]; T-cell line 165-E3C, 10 μg/mL antigen, No Antigen 2797): 39495 RLU | Mean, ATP proliferation assay ([1]; T-cell line 165-E3C, 10 μg/mL, Day 46, after 3 days): 51822 RLU | Reactivity (proliferation), Mean ([1]; T-cell line 165-E3C, 100 μg/mL antigen, No Antigen 2797): 20538 RLU | Mean, ATP proliferation assay ([1]; T-cell line 165-E3C, Day 32, 10 μg/mL): 3778 RLU | Reactivity (proliferation), Mean ([1]; T-cell line 165-F3C, 1 μg/mL antigen, No Antigen 3150): 7777 RLU | Proliferation (luminescent ATP assay), Mean ([1]; T-cell line 165-F3C, 1 μg/mL antigen): 5027 | Reactivity (proliferation), Mean ([1]; T-cell line 165-F3C, 3 μg/mL antigen, No Antigen 3150): 36331 RLU | Proliferation (luminescent ATP assay), Mean ([1]; T-cell line 165-F3C, 3 μg/mL antigen): 32906 | Mean, ATP proliferation assay ([1]; T-cell line 165-F3C, 3 μg/mL, Day 46, after 3 days): 75407 RLU | Reactivity (proliferation), Mean ([1]; T-cell line 165-F3C, 10 μg/mL antigen, No Antigen 3150): 44047 RLU | Proliferation (luminescent ATP assay), Mean ([1]; T-cell line 165-F3C, 10 μg/mL antigen): 62888 | Mean, ATP proliferation assay ([1]; T-cell line 165-F3C, 10 μg/mL, Day 46, after 3 days): 85442 RLU | Reactivity (proliferation), Mean ([1]; T-cell line 165-F3C, 100 μg/mL antigen, No Antigen 3150): 9932 RLU | Mean, ATP proliferation assay ([1]; T-cell line 165-F3C, Day 32, 10 μg/mL): 1141 RLU | Reactivity (proliferation), Mean ([1]; T-cell line 165-F6C, 1 μg/mL antigen, No Antigen 2189): 13418 RLU | Reactivity (proliferation), Mean ([1]; T-cell line 165-F6C, 3 μg/mL antigen, No Antigen 2189): 38973 RLU | Mean, ATP proliferation assay ([1]; T-cell line 165-F6C, 3 μg/mL, Day 46, after 3 days): 31382 RLU | Reactivity (proliferation), Mean ([1]; T-cell line 165-F6C, 10 μg/mL antigen, No Antigen 2189): 39560 RLU | Mean, ATP proliferation assay ([1]; T-cell line 165-F6C, 10 μg/mL, Day 46, after 3 days): 34071 RLU | Reactivity (proliferation), Mean ([1]; T-cell line 165-F6C, 100 μg/mL antigen, No Antigen 2189): 4332 RLU | Mean, ATP proliferation assay ([1]; T-cell line 165-F6C, Day 32, 10 μg/mL): 1484 RLU | response in proliferation assay ([1]; all seven Donor 3 COP T-cell lines tested, Day 54): responded well | reactivity in confirmatory ATP proliferation assay ([1]; six Donor 3 COP lines, Day 32, 10 μg/mL (Table 23)): showed reactivity | luminescent ATP proliferation assay, Mean RLU ([2]; 1 μg/mL): 13131 RLU | luminescent ATP proliferation assay, Mean RLU ([2]; 10 μg/mL): 175652 RLU | luminescent ATP proliferation assay, Mean RLU ([2]; 30 μg/mL): 190750 RLU | Mean, ATP proliferation assay ([2]; Day 50, 1 μg/mL): 47254 | Mean, ATP proliferation assay ([2]; Day 50, 3 μg/mL): 169021 | Mean, ATP proliferation assay ([2]; Day 50, 10 μg/mL): 213196 | Mean, ATP proliferation assay ([2]; Day 58, 3 μg/mL): 21031 | Mean, ATP proliferation assay ([2]; Day 58, 10 μg/mL): 31423 | Mean, ATP proliferation assay ([2]; Day 58, 30 μg/mL): 31323 | Mean, ATP proliferation assay ([2]; Day 58, 100 μg/mL): 31188 | Mean RLU ([2]; 1 μg/mL COP): 12243 RLU | Mean RLU ([2]; 10 μg/mL COP): 147464 RLU | Mean RLU ([2]; 30 μg/mL COP): 112673 RLU | Reactivity (proliferation), Mean ([2]; 1 μg/mL antigen): 1522 RLU | Reactivity (proliferation), Mean ([2]; 3 μg/mL antigen): 5501 RLU | Reactivity (proliferation), Mean ([2]; 10 μg/mL antigen): 11273 RLU
